Results from patent US12304931B2, “MENTSH analogs as therapeutics for diabetes, obesity, and their associated diseases and complications” (University of Southern California, priority 2016, dated 2025).
Ends that are not written are not given here.

Assay: Pharmacokinetics of injected peptide in mice (ELISA)
Assay type: in vivo
Conditions: ELISA detection
Text: FIG. 19. Detection of MENTSH mRNA and peptide and pharmacokinetics of injected peptide in mice. Northern blot hybridization identified the presence of MENTSH transcript in mitochondrial mRNA.
Northern blot hybridization identified the presence of MENTSH transcript in mitochondrial mRNA (FIG. 19). Further, the Inventors developed an ELISA assay for detection of MENTSH. […] Increasing persistent bioavailability of MENTSH by analogs, or other artificial modifications may further improve biological effects for therapeutic use.

Sequence: MKPNPATQNLSMLLNYPH [MENTSH, MKPNPATQNLSMLLNYPH]
- persistence of injected peptide: ~1 h
